Several values for one entry are separate records, joined by “and”; a condition that tells them apart may be missing. Equal entries are not always repeated.
Columns and labels:
PfCRT^Dd2_F145I = biological target: T1, PfCRT^Dd2_F145I (Plasmodium falciparum, UniProt Q8IBZ9, A220S/F145I/I356T/K76T/M74I/N326S/N75E/Q271E/R371I); experiment: Radiolabeled drug uptake in X. laevis oocytes expressing PfCRT^Dd2_F145I; type: cell-based
T1 construct: expressed in transfected cells; host or cells: Xenopus laevis oocytes injected with in vitro transcribed RNA (pSP64T)
T1 sequence (Q8IBZ9 1-424 M74I/N75E/K76T/F145I/A220S/Q271E/N326S/I356T/R371I): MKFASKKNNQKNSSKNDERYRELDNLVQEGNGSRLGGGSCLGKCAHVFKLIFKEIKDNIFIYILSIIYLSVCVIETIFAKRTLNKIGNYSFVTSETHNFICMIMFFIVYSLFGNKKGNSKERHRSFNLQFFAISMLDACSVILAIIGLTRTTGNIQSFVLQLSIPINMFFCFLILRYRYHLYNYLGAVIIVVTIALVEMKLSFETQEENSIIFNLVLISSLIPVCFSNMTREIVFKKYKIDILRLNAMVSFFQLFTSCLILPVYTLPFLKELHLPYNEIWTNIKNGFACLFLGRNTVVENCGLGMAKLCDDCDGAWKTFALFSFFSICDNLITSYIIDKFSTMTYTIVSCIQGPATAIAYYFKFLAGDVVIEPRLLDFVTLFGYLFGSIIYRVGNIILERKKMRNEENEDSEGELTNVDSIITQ
Excerpt: The two kinetic parameters were derived by fitting the Michaelis-Menten equation to the kinetic data (Table 1).
A codon-optimized coding sequence of the Dd2 isoform of PfCRT (PfCRT^Dd2) was subcloned into the pSP64T expression vector [21]. To generate the necessary mutations to introduce the amino acid substitutions H97Y, F145I, M343L or G353V into the pfcrt sequence, the overlap extension method was used. A region from the 5’-untranslated Xenopus β-globin sequence to the respective 3’ region, containing the full length pfcrt coding sequence, was amplified using the following primer pairs: for the H97Y mutation, numbers 1/4 and 2/3; for the F145I mutation, numbers 1/6 and 2/5; for the M343L mutation, numbers 1/8 and 2/7; and for the G353V mutation, numbers 1/10 and 2/9 (for primers, see S2 Table). Both PCR products were used as template for amplification of the final product using primers number 1/2. The resulting fragment was cloned into the pSP64T expression vector, and the presence of the desired mutation was confirmed by sequencing.
(§1) Adult female X. laevis frogs (purchased from NASCO) were anesthetized by submersion in a solution of 0.3% (w/v) 3-amino benzoate methanesulfonate for 15 min. Sections of the ovary were surgically removed and placed in Ca^2+-free ND96 buffer supplemented with 0.1% collagenase D (w/v; Roche), 0.5% BSA (w/v) and 9 mM Na2HPO4 at 18°C for 14–16 h while gently shaking. The oocytes were then washed several times with ND96 buffer (5 mM HEPES, pH 7.5, 96 mM NaCl, 2 mM KCl, 1.8 mM CaCl2, 1 mM MgCl2), supplemented with […] gentamycin. Healthy-looking stage V-VI oocytes were manually selected and randomly grouped for injection. A codon-optimized coding sequence of PfCRT was subcloned into the pSP64T expression vector and subsequently linearized using the restriction endonuclease BamHI or SalI (New England Biolabs GmbH). RNA for injection was transcribed in vitro using the mMESSAGE mMACHINE SP6 Transcription kit (Ambion), diluted with nuclease-free water to a final concentration of 0.6 μg/μL and stored at -80°C. RNA was injected using precision-bore glass capillary tubes (3.5-inch glass capillaries; Drummond Scientific Co.), which were pulled on a vertical puller (P-87 Flaming/Brown micropipette puller, Sutter Instrument Co.) and graduated. The micropipettes were connected to a microinjector (Nanoject II Auto-Nanoliter Injector, Drummond Scientific Co.). Injection was conducted under stereomicroscopic control. 50 nL of nuclease-free water alone (control oocytes) or 50 nL of nuclease-free water containing 30 ng of RNA was injected per oocyte. Injected oocytes were kept for 72 h at 18°C in ND96 buffer with two daily buffer changes before being used for further experiments.
(§2) Drug transport assays were performed as previously described. Briefly, measurements of radiolabeled drug uptake were made over 1 h, unless otherwise specified. […] Where specified, one or more unlabeled drugs were also present at the indicated concentrations. […] The uptake assays were terminated by removing the oocytes from the reaction medium and washing them three times with 2 mL of ice-cold ND96 buffer. Each oocyte was transferred to a separate scintillation vial and lysed by the addition of 200 μL of a 5% SDS solution. The radioactivity in the sample was measured using a liquid scintillation analyser Tri-Carb 4910 TR (PerkinElmer). Water-injected oocytes were analyzed in parallel as a negative control. The buffer from each condition was measured in duplicate in parallel to each experiment to transform counts per minute into pmol of drug. Drug uptake attributable to PfCRT was determined by subtracting the background uptake from water-injected oocytes from that of PfCRT-expressing oocytes.

water-injected oocytes = experiment: Radiolabeled drug uptake in water-injected control oocytes (intrinsic drug accumulation); type: cell-based, Xenopus laevis; settings: 50 μM CQ, pH 6.0; one value per biological replicate
Experimental: as §1
as §2, with “oocytes. In all cases, at least three independent experiments were performed on oocytes from different frogs, and for each condition in an experiment, measurements were made from 10 oocytes per treatment.” for “oocytes.”

[1] = 50 μM CQ, pH 6.0, total uptake, one value per biological replicate
[2] = 50 μM CQ, pH 6.0, water-injected uptake subtracted, per replicate
[3] = 60 min, pH 6, per biological replicate

Q: How did the “PfCRTDd2_F145I-mediated CQ uptake at 10 µM CQ” value (PfCRT^Dd2_F145I; 10 µM CQ, single replicates) turn out when `CCN(CC)CCCC(C)Nc1ccnc2cc(Cl)ccc12` (stereo not shown) [CQ, chloroquine] was run?
A: The value was 1.05 pmol oocyte-1 h-1 and 0.76 pmol oocyte-1 h-1 and 0.87 pmol oocyte-1 h-1.

Q: And the “PfCRTDd2_F145I uptake of CQ at 10 min” value (PfCRT^Dd2_F145I; [1])?
A: The value was 5.03 pmol oocyte-1 and 4.98 pmol oocyte-1 and 4.51 pmol oocyte-1 and 3.10 pmol oocyte-1 and 1.40 pmol oocyte-1.

Q: And the “PfCRTDd2_F145I uptake of CQ at 30 min” value (PfCRT^Dd2_F145I; [1])?
A: The value was 5.64 pmol oocyte-1 and 11.05 pmol oocyte-1 and 6.90 pmol oocyte-1 and 4.67 pmol oocyte-1 and 6.95 pmol oocyte-1.

Q: What about the “PfCRTDd2_F145I uptake of CQ at 60 min” value (PfCRT^Dd2_F145I; [1]) of the same compound?
A: The value was 18.17 pmol oocyte-1 and 7.02 pmol oocyte-1 and 13.61 pmol oocyte-1.

Q: What about the “PfCRTDd2_F145I uptake of CQ at 90 min” value (PfCRT^Dd2_F145I; [1]) of the same compound?
A: The value was 12.38 pmol oocyte-1 and 19.74 pmol oocyte-1 and 12.45 pmol oocyte-1 and 15.73 pmol oocyte-1.

Q: What about the “PfCRTDd2_F145I uptake of CQ at 120 min” value (PfCRT^Dd2_F145I; [1]) of the same compound?
A: The value was 27.64 pmol oocyte-1 and 15.50 pmol oocyte-1 and 17.12 pmol oocyte-1 and 17.11 pmol oocyte-1.

Q: What about the “PfCRTDd2_F145I uptake of CQ at 180 min” value (PfCRT^Dd2_F145I; [1]) of the same compound?
A: The value was 16.65 pmol oocyte-1 and 27.26 pmol oocyte-1 and 23.91 pmol oocyte-1 and 24.65 pmol oocyte-1 and 18.05 pmol oocyte-1.

Q: What about the “PfCRTDd2_F145I-mediated CQ uptake at 10 min” value (PfCRT^Dd2_F145I; [2]) of the same compound?
A: The value was 0.94 pmol oocyte-1 and 1.01 pmol oocyte-1 and 0.80 pmol oocyte-1 and 2.16 pmol oocyte-1 and 0.92 pmol oocyte-1.

Q: What about the “PfCRTDd2_F145I-mediated CQ uptake at 30 min” value (PfCRT^Dd2_F145I; [2]) of the same compound?
A: Its value is 0.42 pmol oocyte-1 and 1.71 pmol oocyte-1 and 1.49 pmol oocyte-1 and 3.31 pmol oocyte-1 and 2.06 pmol oocyte-1.

Q: What about the “PfCRTDd2_F145I-mediated CQ uptake at 60 min” value (PfCRT^Dd2_F145I; [2]) of the same compound?
A: The value was 3.80 pmol oocyte-1 and 4.28 pmol oocyte-1 and 2.84 pmol oocyte-1.

Q: What about the “PfCRTDd2_F145I-mediated CQ uptake at 90 min” value (PfCRT^Dd2_F145I; [2]) of the same compound?
A: The value was 3.78 pmol oocyte-1 and 4.21 pmol oocyte-1 and 3.32 pmol oocyte-1 and 5.64 pmol oocyte-1.

Q: And the “PfCRTDd2_F145I-mediated CQ uptake at 120 min” value (PfCRT^Dd2_F145I; [2])?
A: The value was 7.06 pmol oocyte-1 and 4.10 pmol oocyte-1 and 3.52 pmol oocyte-1 and 3.59 pmol oocyte-1.

Q: And the “PfCRTDd2_F145I-mediated CQ uptake at 180 min” value (PfCRT^Dd2_F145I; [2])?
A: The value was 3.40 pmol oocyte-1 and 6.55 pmol oocyte-1 and 4.77 pmol oocyte-1 and 7.29 pmol oocyte-1 and 3.73 pmol oocyte-1.

Q: What about the “PfCRTDd2_F145I-mediated CQ uptake at 50 µM CQ” value (PfCRT^Dd2_F145I; 50 µM CQ, single replicates) of the same compound?
A: The value was 3.80 pmol oocyte-1 h-1 and 4.28 pmol oocyte-1 h-1 and 2.84 pmol oocyte-1 h-1.

Q: What about the “PfCRTDd2_F145I-mediated CQ uptake at 100 µM CQ” value (PfCRT^Dd2_F145I; 100 µM CQ, single replicates) of the same compound?
A: The value was 7.23 pmol oocyte-1 h-1 and 7.33 pmol oocyte-1 h-1 and 8.14 pmol oocyte-1 h-1.

Q: And the “PfCRTDd2_F145I-mediated CQ uptake at 200 µM CQ” value (PfCRT^Dd2_F145I; 200 µM CQ, single replicates)?
A: Its value is 12.53 pmol oocyte-1 h-1 and 11.12 pmol oocyte-1 h-1 and 14.18 pmol oocyte-1 h-1.

Q: What about the “PfCRTDd2_F145I-mediated CQ uptake at 300 µM CQ” value (PfCRT^Dd2_F145I; 300 µM CQ, single replicates) of the same compound?
A: Its value is 13.73 pmol oocyte-1 h-1 and 16.27 pmol oocyte-1 h-1 and 18.53 pmol oocyte-1 h-1.

Q: And the “PfCRTDd2_F145I-mediated CQ uptake at 400 µM CQ” value (PfCRT^Dd2_F145I; 400 µM CQ, single replicates)?
A: The value was 14.23 pmol oocyte-1 h-1 and 18.19 pmol oocyte-1 h-1 and 22.31 pmol oocyte-1 h-1.

Q: And the “PfCRTDd2_F145I-mediated CQ uptake at 500 µM CQ” value (PfCRT^Dd2_F145I; 500 µM CQ, single replicates)?
A: The value was 19.16 pmol oocyte-1 h-1 and 17.39 pmol oocyte-1 h-1 and 23.99 pmol oocyte-1 h-1.

Q: What about the “PfCRTDd2_F145I-mediated CQ uptake at 10 µM CQ” value (PfCRT^Dd2_F145I; [3]) of the same compound?
A: Its value is 1.05 pmol oocyte-1 h-1 and 0.76 pmol oocyte-1 h-1 and 0.87 pmol oocyte-1 h-1.

Q: And the “PfCRTDd2_F145I-mediated CQ uptake at 50 µM CQ” value (PfCRT^Dd2_F145I; [3])?
A: The value was 2.84 pmol oocyte-1 h-1 and 3.80 pmol oocyte-1 h-1 and 4.28 pmol oocyte-1 h-1.

Q: And the “PfCRTDd2_F145I-mediated CQ uptake at 100 µM CQ” value (PfCRT^Dd2_F145I; [3])?
A: The value was 7.23 pmol oocyte-1 h-1 and 7.33 pmol oocyte-1 h-1 and 8.14 pmol oocyte-1 h-1.

Q: And the “PfCRTDd2_F145I-mediated CQ uptake at 200 µM CQ” value (PfCRT^Dd2_F145I; [3])?
A: The value was 12.53 pmol oocyte-1 h-1 and 11.12 pmol oocyte-1 h-1 and 14.18 pmol oocyte-1 h-1.

Q: What about the “PfCRTDd2_F145I-mediated CQ uptake at 300 µM CQ” value (PfCRT^Dd2_F145I; [3]) of the same compound?
A: The value was 13.73 pmol oocyte-1 h-1 and 16.27 pmol oocyte-1 h-1 and 18.53 pmol oocyte-1 h-1.

Q: What about the “PfCRTDd2_F145I-mediated CQ uptake at 400 µM CQ” value (PfCRT^Dd2_F145I; [3]) of the same compound?
A: The value was 14.23 pmol oocyte-1 h-1 and 18.19 pmol oocyte-1 h-1 and 22.31 pmol oocyte-1 h-1.

Q: What about the “PfCRTDd2_F145I-mediated CQ uptake at 500 µM CQ” value (PfCRT^Dd2_F145I; [3]) of the same compound?
A: The value was 19.16 pmol oocyte-1 h-1 and 17.39 pmol oocyte-1 h-1 and 23.99 pmol oocyte-1 h-1.

Q: What about the “Vmax, maximal velocity of drug transport” value (PfCRT^Dd2_F145I; Michaelis-Menten fit, 10-500 μM drug, 60 min, pH 6) of the same compound?
A: Its value is 35 ± 2 pmol oocyte^-1 h^-1.

Q: What about the “increase of KM by the F145I substitution” value (PfCRT^Dd2_F145I; versus PfCRT^Dd2) of the same compound?
A: The value was 44%.

Q: And the “water-injected uptake of CQ at 10 min” value (water-injected oocytes)?
A: The value was 3.00 pmol oocyte-1 and 2.99 pmol oocyte-1 and 4.09 pmol oocyte-1 and 3.71 pmol oocyte-1 and 0.95 pmol oocyte-1 and 4.05 pmol oocyte-1 and 0.39 pmol oocyte-1 and 2.80 pmol oocyte-1 and 2.76 pmol oocyte-1.

Q: And the “water-injected uptake of CQ at 30 min” value (water-injected oocytes)?
A: Its value is 5.48 pmol oocyte-1 and 5.44 pmol oocyte-1 and 5.22 pmol oocyte-1 and 9.34 pmol oocyte-1 and 5.41 pmol oocyte-1 and 1.36 pmol oocyte-1 and 4.88 pmol oocyte-1 and 5.49 pmol oocyte-1 and 4.65 pmol oocyte-1.

Q: What about the “water-injected uptake of CQ at 60 min” value (water-injected oocytes) of the same compound?
A: The value was 10.84 pmol oocyte-1 and 8.71 pmol oocyte-1 and 14.37 pmol oocyte-1 and 7.57 pmol oocyte-1 and 2.74 pmol oocyte-1 and 9.73 pmol oocyte-1 and 10.77 pmol oocyte-1 and 12.13 pmol oocyte-1 and 9.43 pmol oocyte-1.

Q: And the “water-injected uptake of CQ at 90 min” value (water-injected oocytes)?
A: Its value is 10.67 pmol oocyte-1 and 8.60 pmol oocyte-1 and 15.53 pmol oocyte-1 and 9.13 pmol oocyte-1 and 10.08 pmol oocyte-1 and 13.10 pmol oocyte-1 and 8.74 pmol oocyte-1.

Q: And the “water-injected uptake of CQ at 120 min” value (water-injected oocytes)?
A: Its value is 15.57 pmol oocyte-1 and 11.64 pmol oocyte-1 and 20.59 pmol oocyte-1 and 11.40 pmol oocyte-1 and 13.60 pmol oocyte-1 and 13.51 pmol oocyte-1 and 14.13 pmol oocyte-1 and 14.32 pmol oocyte-1.

Q: What about the “water-injected uptake of CQ at 180 min” value (water-injected oocytes) of the same compound?
A: Its value is 15.62 pmol oocyte-1 and 20.71 pmol oocyte-1 and 19.14 pmol oocyte-1 and 17.36 pmol oocyte-1 and 14.82 pmol oocyte-1 and 15.40 pmol oocyte-1 and 19.29 pmol oocyte-1.
